Laboratory results as given in PubChem BioAssay (NCI).
Values joined by “and” are separate entries in the source; they are usually repeats but may differ in a detail not shown here. Equal entries are not always repeated.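 Grown in 96-well plates, cells were treated for 48 hours with each compound at five concentrations. Insufficient inhibition: endpoint recorded as highest concentration tested. GI50 = concentration required for 50% inhibition of growth. TGI: concentration producing complete growth inhibition.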

Tests used:
Experiment in all cases: NCI tumour cell line growth inhibition, 48 h
[1] = system: MCF7 breast
[2] = system: XF 498 CNS
[3] = system: DMS 114 small cell lung
[4] = system: HOP-18 NSCLC
[5] = system: SNB-78 CNS
[6] = system: M19-MEL melanoma
[7] = system: RXF-631 renal
[8] = system: DLD-1 colon
[9] = system: MDA-N

| Structure (SMILES) | GI50 [1] [µM] | TGI [1] [µM] | TGI [3] | TGI [4] [µM] | TGI [5] [µM] | TGI [6] [µM] | TGI [8] [µM] | further results |
| --- | --- | --- | --- | --- | --- | --- | --- | --- |
| NC(N)=NC(N)=NCCCc1ccco1 | 334 | > 500 |  |  |  |  |  |  |
| Cc1ccc2c(c1)C(=O)c1c-2c(OCCCN(C)C)nc2ccccc12 | 0.609 | 2.03 |  |  |  |  |  |  |
| N#C/C(=N\Nc1ccccc1)C(=O)Nc1cc(-c2ccccc2)nn1-c1ccccc1 | 2.46 | > 100 |  |  |  |  |  |  |
| C[C@]12CC[C@H]3[C@@H](CC4SC(N)=NC45C/C(=N/NC(N)=O)CC[C@]35C)[C@@H]1CCC2=O (stereo partly drawn) | 1.52 | 3.14 |  |  |  |  |  |  |
| O=C(CI)Nc1ccc(O)c2ccccc12 | 0.766 | 2.35 |  |  |  |  |  |  |
| C#CC1(O)CCC2[C@@H]3CCc4cc(Oc5nc(F)nc(-c6c7ccccc7c(SCC)n6CCC)n5)ccc4C3CC[C@@]21C (stereo partly drawn) |  |  | > 100 µM | > 100 | > 100 | > 100 | > 100 | TGI [2]: > 100 µM; TGI [7]: > 100 µM |
| Cc1ccc(S(=O)(=O)OC(COC(=O)c2ccccc2)C(OS(=O)(=O)c2ccc(C)cc2)C(OS(=O)(=O)c2ccc(C)cc2)C(COC(=O)c2ccccc2)OS(=O)(=O)c2ccc(C)cc2)cc1 (stereo not drawn) |  |  |  |  | > 100 | > 100 |  |  |
| COC(=O)[C@@H](C)[C@H]1CC[C@@](C)(CCC2=C(C)CC3C=C(C)CCC3C2(C)C)OO1 (stereo partly drawn) |  |  | 4.04 µM |  | 4.76 | 3.75 | 2.54 | TGI [7]: 4.63 µM |
| C1CN(P2(N3CC3)=NP(N3CC3)(N3CC3)=NP(N3CC3)(N3CC3)=N2)CCO1 (stereo not drawn) |  |  | > 100 µM | > 100 | > 100 | > 100 | > 100 | TGI [2]: > 100 µM |
| C=CCC1(C(=O)OC(C)(C)C)C(OC)=C(C(=O)OC(C)(C)C)C2C1C(C(=O)OC(C)(C)C)=C(OC)C2(CC=C)C(=O)OC(C)(C)C (stereo not drawn) |  |  | > 100 µM | > 100 |  | > 100 | > 100 | TGI [2]: > 100 µM |
| COc1ccc(/C(C#N)=C/c2cc(OC)c(OC)c(OC)c2)cc1 | 11.1 | > 100 |  |  |  |  |  |  |
| COC(=O)C1CC(OC(C)=O)C=C2C(=O)CCC21 (stereo not drawn) |  |  | 30.8 µM | 64.3 | 72.8 | 59.9 | 40.7 | TGI [7]: 86.8 µM |
| Cc1ccc(NC(=O)/C(Cc2cc(=O)oc3cc(O)ccc23)=N\NC(C)(C)C)cc1C |  | > 100 |  |  |  |  |  | TGI [9]: > 100 µM |
| COC(=O)C(=O)C(C(=O)C(=O)Nc1ccccc1OC)c1nc2ccc([N+](=O)[O-])cc2[nH]c1=O (stereo not drawn) |  | > 100 |  |  |  |  |  | TGI [9]: > 100 µM |
| CC(C)(C)N/N=C(\C(=O)Nc1nc(=S)[nH][nH]1)C1C(=O)Nc2ccccc2S1=O (stereo not drawn) |  |  | > 100 µM | > 100 | > 100 | > 100 | > 100 | TGI [2]: > 100 µM; TGI [7]: > 100 µM |
| CCOC(=O)C(Cc1ccccc1)NC(=O)c1[nH]cnc1/N=N/N(C)C (stereo not drawn) |  |  | > 100 µM |  |  | > 100 | > 100 |  |
| CCC1(OC(=O)CN)C(=O)OCc2c1cc1n(c2=O)Cc2cc3ccccc3nc2-1 (stereo not drawn) | 0.0251 |  | 0.461 µM and 1.02 µM | 28.4 | > 100 | 0.237 | > 100 | GI50 [2]: 0.0328 µM; TGI [2]: 0.431 µM; GI50 [5]: 0.53 µM; GI50 [6]: 0.0174 µM; GI50 [9]: 0.122 µM and 0.36 µM |
| COc1cc(OC)c(OC)cc1/C=C/c1cnnc2ccccc12 |  | > 10 |  |  |  |  |  | TGI [9]: > 10 µM |

| Structure (SMILES) | GI50 [1] [µM] | TGI [1] [µM] | TGI [3] | TGI [4] [µM] | TGI [5] [µM] | TGI [6] [µM] | TGI [8] [µM] | further results |
| --- | --- | --- | --- | --- | --- | --- | --- | --- |
| O=CN1N=C(c2cccc(Nc3ccnc4cc(Cl)ccc34)c2)CC1c1ccccc1 (stereo not drawn) | 0.311 | > 33 |  |  |  |  |  |  |
| Clc1ccc2nc(CI)c(CI)nc2c1 | 2.87 | 9.53 |  |  |  |  |  |  |
| C[C@H]1COCCN1c1cc(C2(S(=O)(=O)C3CC3)CC2)nc(-c2ccc(NC(=S)NCCO)cc2)n1 | < 0.01 | 18 |  |  |  |  |  |  |
| Cc1nc2ccccn2c1NC(=O)NNC(=S)Nc1ccc(F)cc1 | > 100 | > 100 |  |  |  |  |  |  |
| O=c1oc2cc(OC/C(=N/O)c3ccc(F)cc3)ccc2c2ccccc12 | 14.9 | 38.4 |  |  |  |  |  |  |
| Cn1c(-c2ccccc2)c(/C=C/C2=[N+](C)c3ccccc3C2(C)C)c2ccccc21 | 0.817 | 10.8 |  |  |  |  |  |  |
| COc1cc(NS(C)(=O)=O)ccc1NCc1c2ccccc2nc2ccccc12 |  |  | 58.2 µM |  |  |  | 85.4 | TGI [2]: 65.9 µM; TGI [7]: 71.3 µM |
| Cn1nc(C(F)(F)F)c(-c2cc(C(F)(F)F)cc(C(F)(F)F)c2)c1-c1ccc(OCc2ccc(Cl)cc2)cc1O | 2.23 | 10.4 |  |  |  |  |  |  |
| COc1ccc(NC(=O)c2sc3nc(C)c(C(=O)/C=C/c4cccc(OC)c4)cc3c2N)cc1 | 0.339 | > 50 |  |  |  |  |  |  |
| COc1ccc(/C=C2\SC(=Nc3ccccc3)NC2=O)cc1 | 2.68 | 42.1 |  |  |  |  |  |  |
| COc1cc(C(=O)O[C@H](C(=O)NCCN(C)CCNC(=O)[C@@H](OC(=O)c2cc(OC)cc3c(C)cccc23)[C@]2(C)CO2)[C@]2(C)CO2)c2cccc(C)c2c1 | < 0.01 | 0.327 |  |  |  |  |  |  |
| CC1=NOC(=O)/C1=C/c1ccc([N+](=O)[O-])cc1 |  |  | > 100 µM | > 100 | > 100 |  | > 100 | TGI [2]: > 100 µM; TGI [7]: > 100 µM |
| O=S(=O)(N=NC=C1c2ccccc2N(O)c2ccccc21)c1ccc(Cl)cc1 |  |  | > 100 µM | > 100 | > 100 | > 100 | > 100 | TGI [7]: > 100 µM |
| CCOc1ccc(NCC2CC/C(=C\c3ccccc3OC)C2=O)cc1 (stereo not drawn) |  |  | 28.2 µM | 28.8 | 44.3 | 26.3 | 13.6 | TGI [7]: 42.5 µM |
| O=C(C#Cc1ccccc1)C1=Cc2ccccc2OC1 |  | 3.87 |  |  |  |  |  |  |
| CC(C(=O)c1ccccc1)C1(O)C(=O)Nc2ccc(Cl)cc21 (stereo not drawn) |  |  | > 100 µM | > 100 | > 100 | 31.6 | > 100 | TGI [2]: > 100 µM |
| N#CC(C#N)=Cc1ccc(CP(=O)(O)O)cc1 |  |  | > 100 µM | > 100 | > 100 | > 100 | > 100 | TGI [2]: > 100 µM; TGI [7]: > 100 µM |
| O=C1C(=O)c2ccccc2C(O)=C1CCCc1ccc(C2CCCCC2)cc1 | 4.17 | 34.2 |  |  |  |  |  |  |
